These are literature values, as cited in patent US10794912B2 (priority 2017, dated 2020).

The conditions of the series: in vivo.

Structures are written as SMILES.

Regarding `C[C@@H]1Cc2c(Cl)cc(C(=O)N[C@@H](Cc3ccccc3)C(=O)O)c(O)c2C(=O)O1` [ochratoxin A], the time to death was 5 to 6 days.
